According to patent publication US10919935B2, “Antimicrobial peptide derived from myxinidin peptide and uses thereof” (INDUSTRY-ACADEMIC COOPERATION FOUNDATION, CHOSUN UNIVERSITY, priority 2015, dated 2021):
Residues, ends and D or L forms follow the SMILES beside them.

Columns and labels:
[1] = tested on: skin wound of mouse infected with bacteria having tolerance to antibiotics; assay: Healing of infected skin wound of mouse; format: in vivo, BALB/c female mouse; settings: 5 mm biopsy punch wound, peptide at 2 times MIC, observed for 2 weeks
Description: Healing process of skin wound of a mouse induced by the synthetic peptide of the present invention, in which the mouse has been infected with Acinetobacter baumannii, Pseudomonas aeruginosa, or Staphylococcus aureus as the bacterial strain having tolerance to antibiotics, was observed during different time periods. The animal tissue was stained by hematoxylin and eosin (H & E) staining to examine the skin tissue having inflammation.
Specifically, a wound was created in a 6 week to 7 week old BALB/c female mouse using 5 mm biopsy punch. Then, the mouse was infected with Staphylococcus aureus, Acinetobacter baumannii, or Pseudomonas aeruginosa, which are the bacterial strain having tolerance to antibiotics, followed by administration of the peptide at a concentration that is 2 times higher than the minimum inhibitory concentration.

[2] = tested on: Acinetobacter baumannii 719705; assay: Anti-microbial disk diffusion susceptibility test with gelatin; format: cell-based; settings: 0.1% gelatin
Description: (§1) FIGS. 4A to 4C show the results of determining the antimicrobial activity when the peptides of the present invention are admixed with gelatin used as a wound moisturizing agent. FIG. 4A: Determination of survival ratio of skin keratinocyte cells in accordance with a change in gelatin concentration; FIG. 4B: Measurement of minimum inhibitory concentration (MIC, μM) of the peptides for Staphylococcus aureus (S. aureus 3018), Acinetobacter baumannii (A. baumannii 719705), and Pseudomonas aeruginosa (P. aeruginosa 4076), in which the result is shown for different gelatin concentrations; FIG. 4C: Result of the anti-microbial disk diffusion susceptibility test carried out for Staphylococcus aureus (S. aureus 3018), Acinetobacter baumannii (A. baumannii 719705), and Pseudomonas aeruginosa (P. aeruginosa 4076), in which the result is shown for different peptide concentrations and also for the presence or absence of gelatin co-blending.
(§2) To specifically determine the antimicrobial activity at the time of mixing the synthetic peptide of the present invention with gelatin, myxinidin 2 and myxinidin 3 synthetic peptides were admixed with 0.1% gelatin. Furthermore, to determine the antimicrobial activity, a minimum inhibitory concentration measurement and an anti-microbial disk diffusion susceptibility test as an agar diffusion method were carried out for Acinetobacter baumannii, Pseudomonas aeruginosa, and Staphylococcus aureus.
(§3) Specifically, cultured Acinetobacter baumannii, Pseudomonas aeruginosa, and Staphylococcus aureus were diluted to a concentration of 2×10^5 cells/ml, admixed with a solution in which 0.1% gelatin is mixed with 1% agarose, and cultured. To see the antimicrobial activity, the peptide was applied on a 6 mm round disk, in which the peptide was applied at various different concentrations, and the diffusion level was measured.

[3] = tested on: Pseudomonas aeruginosa 4076; assay: as above; format: cell-based; settings: 0.1% gelatin
Description: as §1, §2, §3

[4] = tested on: Staphylococcus aureus 3018; assay: as above; format: cell-based; settings: 0.1% gelatin
Description: as §1, §2, §3

[5] = tested on: human skin keratinocyte cells infected with bacteria having tolerance to antibiotics; assay: Migration of infected skin keratinocyte cells (scrape wound); format: cell-based; settings: peptide at 2 times MIC
Description: To determine the wound healing effect of the peptide of the present invention by activating migration of skin keratinocyte cells infected with Acinetobacter baumannii, Pseudomonas aeruginosa, or Staphylococcus aureus, which are the bacterial strain having tolerance to antibiotics, the adhered cells were damaged to have an infection followed by a treatment with myxinidin 2 or myxinidin 3. The resulting cells were then observed under a microscope.
Specifically, human skin keratinocyte cells were cultured at 1×10^6 cells/ml, and then scraped off using a tip. Then, the cells were infected with Staphylococcus aureus, Acinetobacter baumannii, or Pseudomonas aeruginosa, which are the bacterial strain having tolerance to antibiotics, followed by a treatment with the peptide at a concentration that is 2 times higher than the minimum inhibitory concentration. Cell migration was then observed under a microscope.

[6] = tested on: membrane of Escherichia coli; assay: Confocal microscopy analysis with PI (Propidium iodide); format: cell-based; settings: reaction for 10 minutes
Protocol: (§4) Specifically, myxinidin 2 or myxinidin 3, which have been synthesized in the above Example 1, was treated with PI (Propidium Iodide) solution and Escherichia coli or Staphylococcus aureus followed by reaction for 10 minutes. After the reaction, only pure Escherichia coli were collected by centrifuge (4,000 rpm) followed by removal of supernatant. Then, by adding 50 μl of physiological saline (PBS), cell aggregate was removed. By using LSM510 confocal microscope, the working mechanism of the peptide on Escherichia coli and Staphylococcus aureus membrane was determined.

[7] = tested on: membrane of Staphylococcus aureus; assay: as above; format: cell-based; settings: reaction for 10 minutes
Protocol: as §4

[8] = infection with Acinetobacter baumannii
[9] = infection with Pseudomonas aeruginosa
[10] = infection with Staphylococcus aureus

CC[C@H](C)[C@H](NC(=O)[C@H](Cc1c[nH]c2ccccc12)NC(=O)[C@H](CCCCN)NC(=O)[C@@H](NC(=O)[C@@H](N)CCCCN)[C@@H](C)CC)C(=O)N[C@@H](CC(C)C)C(=O)N[C@@H](CCCCN)C(=O)N[C@@H](Cc1ccc(O)cc1)C(=O)N[C@@H](Cc1c[nH]c2ccccc12)C(=O)N[C@@H](CCCCN)C(=O)N[C@@H](Cc1c[nH]c2ccccc12)C(=O)N[C@@H](CO)C(N)=O [Myxinidin 2, KIKWILKYWKWS-NH2] (H-KIKWILKYWKWS-NH2; N-terminus assumed)
Wound healing of infected mouse skin wound [1]: showed epidermalization and wound maturation | Antimicrobial activity with gelatin (disk diffusion) [2]: the antimicrobial activity was maintained | Antimicrobial activity with gelatin (disk diffusion) [3]: exhibited the antimicrobial activity | Antimicrobial activity with gelatin (disk diffusion) [4]: a similar antimicrobial activity was maintained | Cell migration / regeneration of scraped keratinocytes [5, 8]: proliferation with no cell death | Cell migration / regeneration of scraped keratinocytes [5, 9]: fast regeneration rate | Cell migration / regeneration of scraped keratinocytes [5, 10]: Proliferation with no cell death | Activity on membrane (PI, confocal microscopy) [6]: work on the membrane of Escherichia coli and Staphylococcus aureus to show PI | Activity on membrane (PI, confocal microscopy) [7]: work on the membrane of Escherichia coli and Staphylococcus aureus to show PI

CC[C@H](C)[C@H](NC(=O)[C@H](Cc1c[nH]c2ccccc12)NC(=O)[C@H](CCCNC(=N)N)NC(=O)[C@@H](NC(=O)[C@@H](N)CCCNC(=N)N)[C@@H](C)CC)C(=O)N[C@@H](CC(C)C)C(=O)N[C@@H](CCCNC(=N)N)C(=O)N[C@@H](Cc1ccc(O)cc1)C(=O)N[C@@H](Cc1c[nH]c2ccccc12)C(=O)N[C@@H](CCCNC(=N)N)C(=O)N[C@@H](Cc1c[nH]c2ccccc12)C(=O)N[C@@H](CO)C(N)=O [Myxinidin 3, RIRWILRYWRWS-NH2] (H-RIRWILRYWRWS-NH2; N-terminus assumed)
Wound healing of infected mouse skin wound [1]: showed epidermalization and wound maturation | Antimicrobial activity with gelatin (disk diffusion) [2]: exhibited a slightly higher antimicrobial activity when the treatment is made only with the peptide | Antimicrobial activity with gelatin (disk diffusion) [3]: exhibited the antimicrobial activity | Antimicrobial activity with gelatin (disk diffusion) [4]: a similar antimicrobial activity was maintained | Cell migration / regeneration of scraped keratinocytes [5, 8]: fast regeneration rate | Cell migration / regeneration of scraped keratinocytes [5, 9]: proliferation with no cell death | Cell migration / regeneration of scraped keratinocytes [5, 10]: more rapid regeneration | Activity on membrane (PI, confocal microscopy) [6]: work on the membrane of Escherichia coli and Staphylococcus aureus to show PI | Activity on membrane (PI, confocal microscopy) [7]: work on the membrane of Escherichia coli and Staphylococcus aureus to show PI
